Patent US20230014151A1, “COMBINATION ANTIVIRAL THERAPY FOR MEASLES” (The Trustees of Columbia University in the City of New York, priority 2019, published 2023)
“Also recorded” adds a separate entry of the source. Like-named read-outs stand apart in the source and are kept apart here.

What was measured:
[1] = target: viral glycoproteins (H and F); Nectin-4 (Measles virus, UniProt Q786F3); test: beta-galactosidase complementation-based fusion assay, Nectin-4 target cells
[2] = target: viral glycoproteins (H and F); CD150; test: beta-galactosidase complementation-based fusion assay, CD150 target cells
[3] = test system: soluble MeV F; type: biochemical, measles virus
[4] = target: T1, soluble MeV F (Measles virus, UniProt Q786F3); type: biochemical; details: peptide in culture medium, supernatant 24 hours post transfection
T1 construct: produced in a soluble form, with the ablation of the intracytoplasmic and transmembrane domains; Tobacco Etch Virus protease site (C); foldomer (trimerization) domain (C); 6xHis (C); made in house; host or cells: 293T (culture supernatant)
T1 sequence (Q786F3 113-494, added parts left off): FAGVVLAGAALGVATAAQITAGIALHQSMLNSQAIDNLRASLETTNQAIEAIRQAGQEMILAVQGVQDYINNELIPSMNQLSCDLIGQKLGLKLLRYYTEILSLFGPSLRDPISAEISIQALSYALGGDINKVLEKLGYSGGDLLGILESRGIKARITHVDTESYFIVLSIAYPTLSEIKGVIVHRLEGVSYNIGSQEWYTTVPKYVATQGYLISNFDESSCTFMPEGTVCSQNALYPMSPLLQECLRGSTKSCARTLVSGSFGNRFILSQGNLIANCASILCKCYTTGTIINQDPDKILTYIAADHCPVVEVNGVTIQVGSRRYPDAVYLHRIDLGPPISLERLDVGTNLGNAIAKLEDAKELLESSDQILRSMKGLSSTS
T1 sequence (Q786F3 24-112): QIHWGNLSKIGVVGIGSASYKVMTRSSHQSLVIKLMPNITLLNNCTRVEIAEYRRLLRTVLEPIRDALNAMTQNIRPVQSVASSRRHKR

Sequence of viral glycoproteins (H and F); Nectin-4 (Q786F3 24-112): as above
Sequence of viral glycoproteins (H and F); CD150 (Q786F3 24-112): as above
Sequence of viral glycoproteins (H and F); CD150 (Q786F3 113-550): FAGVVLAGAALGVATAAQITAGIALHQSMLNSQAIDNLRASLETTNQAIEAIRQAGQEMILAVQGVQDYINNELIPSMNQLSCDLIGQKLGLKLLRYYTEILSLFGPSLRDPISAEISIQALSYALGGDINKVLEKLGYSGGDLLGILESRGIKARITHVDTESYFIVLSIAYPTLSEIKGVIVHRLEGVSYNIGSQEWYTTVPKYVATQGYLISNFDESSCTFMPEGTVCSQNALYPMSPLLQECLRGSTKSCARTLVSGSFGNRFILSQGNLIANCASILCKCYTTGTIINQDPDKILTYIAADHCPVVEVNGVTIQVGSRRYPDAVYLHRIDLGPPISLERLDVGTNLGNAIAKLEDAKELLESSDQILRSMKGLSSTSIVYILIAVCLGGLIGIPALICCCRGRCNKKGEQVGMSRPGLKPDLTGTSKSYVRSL

CC[C@H](C)[C@H](NC(=O)[C@H](C)NC(=O)[C@H](CC(N)=O)NC(=O)CNC(=O)[C@H](CC(C)C)NC(=O)[C@H](CC(N)=O)NC(=O)[C@@H](NC(=O)CNC(=O)[C@@H](NC(=O)[C@H](CC(=O)O)NC(=O)[C@H](CC(C)C)NC(=O)[C@H](CCCNC(=N)N)NC(=O)[C@H](CCC(=O)O)NC(=O)[C@H](CC(C)C)NC(=O)[C@H](CO)NC(=O)[C@@H](NC(=O)[C@@H]1CCCN1C(=O)[C@@H]1CCCN1C(=O)CNC(=O)[C@H](CO)NC(=O)CNC(=O)[C@H](CO)NC(=O)CNC(=O)CNC(=O)[C@H](Cc1ccccc1)NC(=O)[C@@H](Cc1ccccc1)NC(=O)OCc1ccccc1)[C@@H](C)CC)C(C)C)[C@@H](C)O)C(=O)N[C@@H](C)C(=O)N[C@@H](CCCCN)C(=O)N[C@@H](CC(C)C)C(=O)N[C@@H](CCC(=O)O)C(=O)N[C@@H](CC(=O)O)C(=O)N[C@@H](C)C(=O)N[C@@H](CCCCN)C(=O)N[C@@H](CCC(=O)O)C(=O)N[C@@H](CC(C)C)C(=O)N[C@@H](CC(C)C)C(=O)N[C@@H](CCC(=O)O)C(=O)N[C@@H](CO)C(=O)N[C@@H](CO)C(=O)N[C@@H](CC(=O)O)C(=O)N[C@@H](CCC(N)=O)C(=O)N[C@H](C(=O)N[C@@H](CC(C)C)C(=O)N[C@@H](CCCNC(=N)N)C(=O)NCC(=O)N[C@@H](CO)C(=O)NCC(=O)N[C@@H](CO)C(=O)NCC(=O)N[C@@H](CSC1CC(=O)N(CCC(=O)NCCOCCOCCOCCOCCOCCOCCOCCOCCOCCOCCOCCNC(=O)CCN2C(=O)CC(SC[C@H](NC(=O)CNC(=O)[C@H](CO)NC(=O)CNC(=O)[C@H](CO)NC(=O)CNC(=O)[C@H](CCCNC(=N)N)NC(=O)[C@H](CC(C)C)NC(=O)[C@@H](NC(=O)[C@H](CCC(N)=O)NC(=O)[C@H](CC(=O)O)NC(=O)[C@H](CO)NC(=O)[C@H](CO)NC(=O)[C@H](CCC(=O)O)NC(=O)[C@H](CC(C)C)NC(=O)[C@H](CC(C)C)NC(=O)[C@H](CCC(=O)O)NC(=O)[C@H](CCCCN)NC(=O)[C@H](C)NC(=O)[C@H](CC(=O)O)NC(=O)[C@H](CCC(=O)O)NC(=O)[C@H](CC(C)C)NC(=O)[C@H](CCCCN)NC(=O)[C@H](C)NC(=O)[C@@H](NC(=O)[C@H](C)NC(=O)[C@H](CC(N)=O)NC(=O)CNC(=O)[C@H](CC(C)C)NC(=O)[C@H](CC(N)=O)NC(=O)[C@@H](NC(=O)CNC(=O)[C@@H](NC(=O)[C@H](CC(=O)O)NC(=O)[C@H](CC(C)C)NC(=O)[C@H](CCCNC(=N)N)NC(=O)[C@H](CCC(=O)O)NC(=O)[C@H](CC(C)C)NC(=O)[C@H](CO)NC(=O)[C@@H](NC(=O)[C@@H]3CCCN3C(=O)[C@@H]3CCCN3C(=O)CNC(=O)[C@H](CO)NC(=O)CNC(=O)[C@H](CO)NC(=O)CNC(=O)CNC(=O)[C@H](Cc3ccccc3)NC(=O)[C@@H](Cc3ccccc3)NC(=O)OCc3ccccc3)[C@@H](C)CC)C(C)C)[C@@H](C)O)[C@@H](C)CC)[C@@H](C)CC)C(=O)O)C2=O)C1=O)C(=O)O)[C@@H](C)CC (stereo partly drawn) [[FIP-HRC450-485]2-peg11]
IC50 [1]: 528 ± 635 nM
IC90 [1]: 1180 ± 979 nM
IC90 ([1]; read-out: Nectin4 IC90): 1180 ± 979 nM
IC50 [2]: 278 ± 229 nM
IC90 ([2]; read-out: CD150 IC90): 916 ± 162 nM
stabilization of soluble F by FIP-HRC (dimer without cholesterol), FIGS. 117A-E ([3]; 55° C., 1 mM peptide, compared with FIP commercial, FIP dimer, 3 g): remains in its pre-fusion state incubation at 55 °C for up to two hours; also recorded: wt F is partially stabilized; also recorded: superior to commercially available stabilizer like the commercial FIP and 3 g
stabilization of soluble F proteins on heating ([3]; wt, E455G, E170G E455G soluble F, 45° C. or 55° C. for 30', 1 uM peptide): stabilize all the soluble F protein at both 45 °C and 55 °C
stabilization of wt soluble F in pre-fusion state [4]: stabilize the wt soluble F
stabilization of wt soluble F in pre-fusion state ([4]; listed as FIP-HRC-PEG11-dimer): wt F protein remains in its pre-fusion state
